In publication PMC7395062, “Multiparametric assessment of mitochondrial respiratory inhibition in HepG2 and RPTEC/TERT1 cells using a panel of mitochondrial targeting agrochemicals” (Archives of Toxicology, 2020):
Where two headings read alike, the source gives them in different places.

Assays:
RPTEC/TERT1 cells [1] = assay: Resazurin reduction viability assay, RPTEC/TERT1; type: cell-based, human
Description: These cells were obtained under licence from Evercyte GmBH, Vienna Austria. […] For experiments, cells were plated in a required format plate, allowed to become contact-inhibited and fed 24 h prior to treatment exposure. For experiments in galactose condition, cells were fed 24 h prior to experiment with culture medium (custom made DMEM/F12, PromoCell) in which 5 mM glucose was replaced with 5 mM galactose (Merck, G5388).
(§1) The conversion of resazurin to fluorescent resorufin was measured in a plate reader at excitation/emission 540/590 nm.
(§2) All results are average of 2–3 independent experiments.

[2] = target: NADH dehydrogenase (Complex I, CI) (Homo sapiens, UniProt O75251+O75306+P03886)
Description: The mitochondrial complex assay uses real-time OCR measurement with sequential addition of specific complex substrates and/or inhibitors to identify the complex within the ETC that is inhibited. […] In the first step, cultured cells are permeabilised and provided with CI substrates. The test compound is injected and OCR is measured. […] OCR is measured for the second time. In the third step, Antimycin A together with ascorbate and tetramethyl phenylenediamine (TMPD) is added to simultaneously block CIII and supply CIV. A third and final OCR measurement is conducted.
The following day, cells were washed once in mitochondrial assay solution (MAS), containing 220 mM mannitol (Sigma, M9647), 70 mM sucrose (Sigma, S7903), 10 mM potassium phosphate (Sigma, P5655), 5 mM magnesium chloride (Sigma, M8266), 3 mM HEPES (Sigma, H0887) and 1 mM EGTA (Sigma, E4378) with 0.2% fatty acid-free BSA (Sigma, A8806). […] Each measurement consisted of a thirty second mix and two-minute read cycle. Compounds were injected sequentially and OCR was measured twice. […] Complex inhibition was determined using the second OCR measurement after compound/vehicle injection, normalised to the baseline OCR measurements prior to compound addition. ETC inhibition is determined in decreased OCR. CI inhibition is confirmed if the inhibited OCR by injection A can be rescued after injection B. CII inhibition is determined if there is no inhibition after A, but inhibition after B. CIII inhibition is determined if there is inhibition after A and B, with recovery after C. OCR inhibition after injection C indicates effects downstream of CIII.
All results are average of 2–3 independent experiments. Each independent experiment is referred to as biological replicate and includes at least two technical replicates. […] Variation in all performed assays was calculated and represented as standard deviation (SD). Curves were fit using the non-liner regression four-parameter Hill model.

HepG2 cells [3] = assay: Resazurin reduction viability assay, 2D HepG2; type: cell-based, human; conditions: for Statistical significance, Viability Galactose settings Resazurin: HepG2
Description: The HepG2 cell line, a human hepatocellular carcinoma, was obtained from ATCC (American Type Culture Collection, Wesel, Germany). […] Cells were maintained at 37 °C in a 5% CO2 humidified atmosphere, fed every 2 to 3 days and passaged at approximately 80% confluence. […] For galactose experiments, the medium was refreshed 24 h before exposure with galactose-containing medium. […] Culture medium was refreshed every 3–4 days and the culture was maintained for 21 days prior to dosing.
as §1, §2

RPTEC/TERT1 cells [4] = assay: Mitochondrial membrane potential (MMP) assay with JC-1; type: cell-based, human; conditions: RPTEC/TERT1, JC-1, 24 h
Description: JC-1 is a single-excitation dual-emission fluorescence-based assay that allows for ratiometric semiquantitative assessment of mitochondrial membrane potential (Perry et al. [2011]). For quantification of changes in MMP cells were pre-loaded, for approximately 1.5 h, with the JC-1 pre-loading solution containing 9 µM JC-1 (Invitrogen, 65-0851-38), 9 µL/mL Pluronic F-127 10% in water (Invitrogen, P6866) and 5 µM Cyclosporine A (CsA) (Merck, 30024), a P-glycoprotein (P-gp) inhibitor, to prevent dye extrusion due to the expression of efflux pumps in RPTEC/TERT1 cell line. After this incubation time, cells were washed and exposed to test compounds dissolved in a JC-1 treatment solution containing 0.5 µM JC-1, 1.5 µL/mL Pluronic F-127 and 1 µM CsA for the desired time. We have previously determined that CsA at up to 5 µM has no adverse effect on RPTEC/TERT1 cells for up to 14 days (Wilmes et al. [2013]). Fluorescence was measured in a plate reader at excitation 492 nm and dual emission, 535 nm for monomers and 590 nm for dimers. Results are presented as the dimer/monomer ratio and expressed as percentage of untreated samples.
(§3) All results are average of 2–3 independent experiments. […] Leist, University of Konstanz (Krebs et al. [2020]).

HepG2 cells [5] = assay: Mitochondrial membrane potential (Rho123) live confocal imaging; type: cell-based, human; conditions: HepG2, Rho123, 24 h
Description: Rhodamine 123 (Rho123) (Merck, R8004) was used in a live confocal imaging setting for the assessment of effects at MMP. Rho123 localises to mitochondria and the decline in fluorescence is proportional to a decrease in MMP (Johnson et al. [1980], [1981]). HepG2 were seeded at 10,000 cells/30 μL/well in a 384-wells μCLEAR® black plate (Greiner Bio-One, 781 091). Two days post-seeding, 30 μL complete HepG2 culture medium, containing 200 ng/μL Hoechst 33342 (Life technologies, H1399) and 1 μM Rho123, was added to the medium. After 1 h incubation at 37° C, the medium was removed and 25 μL complete DMEM containing 0.2 μM Rho123 and 100 nM propidium iodide (PI) (Merck, P4170) was added, followed by 25 μL of medium containing 2×, the desired concentration of test compound. The intensity of Hoechst, Rho123 and PI, was monitored using live confocal imaging for 24 h using the 408, 488 and 561 nm laser, respectively. The confocal imaging was performed using a Nikon TiE2000 with perfect focus system and xy-stage (Nikon, Amsterdam, The Netherlands). Quantification of the Hoechst, Rho123 and PI signal intensity and localization were performed using CellProfiler version 2.1.1 (Broad Institute, Cambridge, USA). The nuclear identification based on the Hoechst signal was performed using an internally created segmentation module (Di et al. [2012]), followed by a cytoplasmic identification based on a specific distance from these nuclei. The PI-positive nuclei were identified by masking the previous segmented nuclei and the PI signal. More than 10% overlap was considered as PI positive. All CellProfiler analyses were stored as HDF5 files. The combination of an internally developed R script, run in Rstudio (Boston, USA), was used for data extraction including Rho123 signal intensity, fraction PI positive and nuclear count.
as §3

HepG2 cells [6] = assay: Cell death (PI staining) in 2D HepG2 by live confocal imaging; type: cell-based, human
Description: After 1 h incubation at 37° C, the medium was removed and 25 μL complete DMEM containing 0.2 μM Rho123 and 100 nM propidium iodide (PI) (Merck, P4170) was added, followed by 25 μL of medium containing 2×, the desired concentration of test compound. […] The confocal imaging was performed using a Nikon TiE2000 with perfect focus system and xy-stage (Nikon, Amsterdam, The Netherlands). Quantification of the Hoechst, Rho123 and PI signal intensity and localization were performed using CellProfiler version 2.1.1 (Broad Institute, Cambridge, USA). […] The PI-positive nuclei were identified by masking the previous segmented nuclei and the PI signal. More than 10% overlap was considered as PI positive. All CellProfiler analyses were stored as HDF5 files. The combination of an internally developed R script, run in Rstudio (Boston, USA), was used for data extraction including Rho123 signal intensity, fraction PI positive and nuclear count.
as §2

[7] = tested on: CII/CIII (succinate dehydrogenase / cytochrome bc1 complex); type: cell-based, human; conditions: permeabilised HepG2; sequential substrates/inhibitors
Description: The test compound is injected and OCR is measured. […] OCR is measured for the second time. […] A third and final OCR measurement is conducted.
Compounds were injected sequentially and OCR was measured twice. […] ETC inhibition is determined in decreased OCR.
as §2

HepG2 cells [8] = assay: Seahorse mitostress assay in intact cells (OCR/ECAR), HepG2; conditions: seen at 2 and 10 µM
RPTEC/TERT1 cells [9] = assay: Seahorse mitostress assay in intact cells (OCR/ECAR), RPTEC/TERT1; type: cell-based, human
Description: The Seahorse bioanalyzer simultaneously measures cellular oxygen consumption rates (OCR) and extracellular acidification rates (ECAR). The mitostress assay utilises a sequential addition of modulators of the oxidative phosphorylation to assess key parameters of mitochondrial function. […] It is worth noting here that RPTEC/TERT1 require longer differentiation time in the Seahorse plates, potentially due to sub-optimum gas exchange in the Seahorse culture plates. HepG2 cells were cultured at the density of 15,000 cells/well on collagen-coated (2.5 µg/µL collagen IV, Merck, C7521) Seahorse cell culture microplates two days prior to analysis.
The mitostress test was performed as described (Eakins et al. [2016]; Tilmant et al. [2018]). Immediately before the assay, cell culture medium was replaced with 180 µL of Seahorse XF Base Medium without phenol red (Agilent, 1003335-100), supplemented with 10 mM D-glucose (Merck, G7021), 5 mM HEPES (Merck, H4034), 2 mM sodium pyruvate (Merck, P5281) and 1 mM L-glutamine (Merck, G8540). Cells were allowed to equilibrate for 45 min in a non-CO2 37 °C incubator. […] OCR was measured five times after test compound injection and three times for all injections. Each measurement consisted of a 3 min mix and subsequent 3 min read cycle. […]

[10] = RPTEC/TERT1, glucose, h = 10 µM
[11] = up to 10 µM, 24 h exposure, glucose

Chain of NADH dehydrogenase (Complex I, CI) (O75251 39-213): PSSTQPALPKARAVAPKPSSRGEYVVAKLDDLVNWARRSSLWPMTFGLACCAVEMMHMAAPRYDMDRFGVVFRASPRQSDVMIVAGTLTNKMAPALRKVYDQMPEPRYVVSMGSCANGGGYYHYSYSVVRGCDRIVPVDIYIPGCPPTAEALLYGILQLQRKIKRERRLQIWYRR
Chain of NADH dehydrogenase (Complex I, CI) (P03886 whole entry): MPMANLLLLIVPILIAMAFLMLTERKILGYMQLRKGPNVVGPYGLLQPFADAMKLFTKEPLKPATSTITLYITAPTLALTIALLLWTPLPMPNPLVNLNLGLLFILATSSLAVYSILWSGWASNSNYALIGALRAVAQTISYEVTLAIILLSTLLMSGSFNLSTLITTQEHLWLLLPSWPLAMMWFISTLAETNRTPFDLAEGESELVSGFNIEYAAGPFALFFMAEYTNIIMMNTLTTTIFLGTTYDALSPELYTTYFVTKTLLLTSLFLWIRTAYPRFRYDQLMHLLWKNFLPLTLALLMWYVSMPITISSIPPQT
Chain of NADH dehydrogenase (Complex I, CI) (O75306 34-463): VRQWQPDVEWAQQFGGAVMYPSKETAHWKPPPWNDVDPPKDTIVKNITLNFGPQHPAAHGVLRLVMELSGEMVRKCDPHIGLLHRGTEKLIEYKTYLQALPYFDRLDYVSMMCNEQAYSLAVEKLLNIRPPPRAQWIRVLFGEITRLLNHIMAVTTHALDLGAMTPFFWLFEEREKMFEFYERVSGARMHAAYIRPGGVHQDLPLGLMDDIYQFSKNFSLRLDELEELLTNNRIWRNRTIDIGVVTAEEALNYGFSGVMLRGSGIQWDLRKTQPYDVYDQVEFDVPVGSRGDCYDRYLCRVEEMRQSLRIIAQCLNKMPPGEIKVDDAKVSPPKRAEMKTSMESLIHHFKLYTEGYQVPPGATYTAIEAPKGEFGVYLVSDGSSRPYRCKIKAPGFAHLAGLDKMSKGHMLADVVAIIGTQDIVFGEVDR

SMILES: COc1cc(CNC(=O)CCCC/C=C/C(C)C)ccc1O [Capsaicin]
- Statistical significance, Viability Glucose settings Resazurin (RPTEC/TERT1 cells [1]; [10]): * (*p < 0.05 (Tables 3, 4))
- Effect on resazurin reduction (RPTEC/TERT1 cells [1]; [11]): did not affect resazurin reduction
- LOEL, CI inhibition in mitochondrial complex assay ([2]; permeabilised HepG2): 50 µM
- ETC-complex specificity pattern (CI) ([2]; permeabilised HepG2, OCR inhibition after injection, recovery with succinate): expected CI-specificity pattern
- Effect on resazurin reduction / viability (HepG2 cells [3]; [11]): did not affect resazurin reduction

SMILES: CC(C)Oc1cccc(NC(=O)c2ccccc2C(F)(F)F)c1 [Flutolanil]
- Effect on MMP (RPTEC/TERT1 cells [4]): actually increased it
- Effect on MMP (HepG2 cells [5]): decreased MMP, but only at the highest concentrations

SMILES: Cc1ccccc1C(=O)Nc1cccc(OC(C)C)c1 [Mepronil]
- Effect on MMP (RPTEC/TERT1 cells [4]): actually increased it
- Effect on MMP (HepG2 cells [5]): decreased MMP, but only at the highest concentrations

SMILES: Cc1nn(C)c(Oc2ccccc2)c1C=NOCc1ccc(C(=O)OC(C)(C)C)cc1 [Fenpyroximate]
- Statistical significance, Viability Glucose settings Resazurin (RPTEC/TERT1 cells [1]): * (*p < 0.05 (Tables 3, 4))
- Statistical significance, Viability Galactose settings Resazurin (RPTEC/TERT1 cells [1]; RPTEC/TERT1, e = 0.08 µM): * (*p < 0.05 (Tables 3, 4))
- Statistical significance, Viability Galactose settings Resazurin (RPTEC/TERT1 cells [1]; RPTEC/TERT1, g = 7 µM): * (*p < 0.05 (Tables 3, 4))
- Statistical significance, Viability Galactose settings Resazurin (RPTEC/TERT1 cells [1]; RPTEC/TERT1, h = 10 µM): * (*p < 0.05 (Tables 3, 4))
- Statistical significance, Viability Glucose settings Resazurin (RPTEC/TERT1 cells [1]; RPTEC/TERT1, glucose, g = 7 µM): * (*p < 0.05 (Tables 3, 4))
- Statistical significance, Viability Glucose settings Resazurin (RPTEC/TERT1 cells [1]; [10]): * (*p < 0.05 (Tables 3, 4))
- Statistical significance, Viability Galactose settings Resazurin (HepG2 cells [3]; d = 0.016 µM): * (*p < 0.05 (Tables 3, 4))
- Statistical significance, Viability Galactose settings Resazurin (HepG2 cells [3]; e = 0.08 µM): * (*p < 0.05 (Tables 3, 4))
- Statistical significance, Viability Galactose settings Resazurin (HepG2 cells [3]; g = 7 µM): * (*p < 0.05 (Tables 3, 4))
- Statistical significance, Viability Galactose settings Resazurin (HepG2 cells [3]; h = 10 µM): * (*p < 0.05 (Tables 3, 4))
- Statistical significance, Cell death (% 24h) Galactose (HepG2 cells [6]): * (*p < 0.05 (Tables 3, 4))

SMILES: Cc1ccc(-c2c(Cl)nc(C#N)n2S(=O)(=O)N(C)C)cc1 [Cyazofamid]
- ETC-complex specificity pattern (CII/CIII) [7]: CII inhibition pattern but only at 100 µM
- Uncoupling effect in mitostress OCR (HepG2 cells [8]): strong uncoupling effect
- Uncoupling effect in mitostress OCR (RPTEC/TERT1 cells [9]; RPTEC/TERT1, seen at 2 and 10 µM): strong uncoupling effect
- Statistical significance, Viability Galactose settings Resazurin (HepG2 cells [3]; h = 10 µM): * (*p < 0.05 (Tables 3, 4))

SMILES: Cc1nc(C(F)(F)F)c(C(=O)Nc2c(Br)cc(OC(F)(F)F)cc2Br)s1 [Thifluzamide]
- Effect on maximal respiration (RPTEC/TERT1 cells [9]; RPTEC/TERT1, higher concentrations): tendency to increase maximal respiration
- Statistical significance, Viability Galactose settings Resazurin (HepG2 cells [3]; h = 10 µM): * (*p < 0.05 (Tables 3, 4))
- Effect on MMP (HepG2 cells [5]): decreased MMP, but only at the highest concentrations

SMILES: COc1cc2c(cc1OC)[C@@H]1C(=O)c3ccc4c(c3O[C@@H]1CO2)C=CC(C)(C)O4 [Deguelin]
- Statistical significance, Viability Galactose settings Resazurin (RPTEC/TERT1 cells [1]; RPTEC/TERT1, f = 0.4 µM): * (*p < 0.05 (Tables 3, 4))
- Statistical significance, Viability Galactose settings Resazurin (RPTEC/TERT1 cells [1]; RPTEC/TERT1, g = 7 µM): * (*p < 0.05 (Tables 3, 4))
- Statistical significance, Viability Galactose settings Resazurin (RPTEC/TERT1 cells [1]; RPTEC/TERT1, h = 10 µM): * (*p < 0.05 (Tables 3, 4))
- Statistical significance, Viability Glucose settings Resazurin (RPTEC/TERT1 cells [1]; RPTEC/TERT1, glucose, g = 7 µM): * (*p < 0.05 (Tables 3, 4))
- Statistical significance, Viability Glucose settings Resazurin (RPTEC/TERT1 cells [1]; [10]): * (*p < 0.05 (Tables 3, 4))
- OCR basal - Permeabilised cells Measurement 1 statistical significance [2]: * (*p < 0.05)
- Statistical significance, Viability Galactose settings Resazurin (HepG2 cells [3]; f = 0.4 µM): * (*p < 0.05 (Tables 3, 4))
- Statistical significance, Viability Galactose settings Resazurin (HepG2 cells [3]; g = 7 µM): * (*p < 0.05 (Tables 3, 4))
- Statistical significance, Viability Galactose settings Resazurin (HepG2 cells [3]; h = 10 µM): * (*p < 0.05 (Tables 3, 4))
